Data set [1] has as its system bacteria. Conditions: as reported in literature; cited from earlier work.
Data set [2] deals with β-lactamases. The settings on record: as reported in literature; cited from earlier work.
The subject of data set [3] is Str. pneumoniae A-9585. The data set is described as follows: MIC by tube dilution, Str. pneumoniae A-9585. The class given is cell-based. The settings on record: Streptococcus pneumoniae, A9585, Str. pneumoniae A-9585, overnight, 37° C. How it is done: (§1) The in vitro minimum inhibitory concentrations (MIC) of d,l-2-methylpenem-3-carboxylic acid, (+)-2-methylpenem-3-carboxylic acid and (-)-2-methylpenem-3-carboxylic acid were determined for a number of microorganisms as determined by overnight incubation at 37° C. by tube dilution. Ampicillin was included as a comparison compound.

Data set [4] has as its system Str. pyogenes A-9604. The data set is described as follows: MIC by tube dilution, Str. pyogenes A-9604. The format is cell-based. Conditions: Streptococcus pyogenes, A9604, Str. pyogenes A-9604, overnight, 37° C. Here is the method: as §1
Data set [5] deals with Staph. aureus A-9537. In words: MIC by tube dilution, Staph. aureus A-9537. Conditions: Staphylococcus aureus, 37° C. The format is cell-based. Here is the method:
as §1

Data set [6] relates to Staph. aureus (Pen-Res) A-9606. In words: MIC by tube dilution, Staph. aureus (Pen-Res) A-9606. The settings on record: overnight, 37° C. The class given is cell-based. Here is the method: as §1
In data set [7] the test system is Staph. aureus (Meth-Res) A-15097. The data set is described as follows: MIC by tube dilution, Staph. aureus (Meth-Res) A-15097. The class given is cell-based. The settings on record: overnight, 37° C. Here is the method: as §1
Data set [8] concerns Str. faecalis A-20688. In words: MIC by tube dilution, Str. faecalis A-20688. The format is cell-based. Conditions: 37° C. How it is done: as §1
Data set [9] deals with E. coli A-15119. In words: MIC by tube dilution, E. coli A-15119. The class given is cell-based. The settings on record: 37° C. Here is the method: as §1
Data set [10] relates to E. coli A-20341-1. The data set is described as follows: MIC by tube dilution, E. coli A-20341-1. The class given is cell-based. Conditions: 37° C. How it is done:
as §1

Data set [11] relates to K. pneumoniae A-15130. The data set is described as follows: MIC by tube dilution, K. pneumoniae A-15130. The class given is cell-based. Conditions: 37° C. Here is the method: as §1
The test system of data set [12] is K. pneumoniae A-20468. The data set is described as follows: MIC by tube dilution, K. pneumoniae A-20468. The class given is cell-based. Conditions: 37° C.; for MIC: Klebsiella pneumoniae, A20468, overnight. Here is the method:
as §1

The test system of data set [13] is Pr. mirabilis A-9900. The data set is described as follows: MIC by tube dilution, Pr. mirabilis A-9900. The format is cell-based. Conditions: 37° C. Here is the method: as §1
For data set [14], the system named is Pr. vulgaris A-9716. In words: MIC by tube dilution, Pr. vulgaris A-9716. The settings on record: 37° C. The format is cell-based. How it is done: as §1
Data set [15] deals with Pr. morganii A-15153. In words: MIC by tube dilution, Pr. morganii A-15153. The settings on record: 37° C. The class given is cell-based. Here is the method:
as §1

The subject of data set [16] is Pr. rettgeri A-21205. The data set is described as follows: MIC by tube dilution, Pr. rettgeri A-21205. The class given is cell-based. Conditions: 37° C.; for M.I.C.: Pr. rettgeri A-21205, overnight. Here is the method:
as §1

The subject of data set [17] is Ser. marcescens A-20019. In words: MIC by tube dilution, Ser. marcescens A-20019. The settings on record: 37° C. The class given is cell-based. How it is done: as §1
The test system of data set [18] is Ent. cloacae A-9659. The data set is described as follows: MIC by tube dilution, Ent. cloacae A-9659. The class given is cell-based. Conditions: 37° C. Here is the method: as §1
In data set [19] the test system is Ent. cloacae A-9656. In words: MIC by tube dilution, Ent. cloacae A-9656. The settings on record: 37° C. The class given is cell-based. Here is the method:
as §1

Data set [20] relates to Ps. aeruginosa A-9843A. The data set is described as follows: MIC by tube dilution, Ps. aeruginosa A-9843A. The class given is cell-based. Conditions: overnight, 37° C. How it is done:
as §1

Data set [21] deals with Ps. aeruginosa A-21213. In words: MIC by tube dilution, Ps. aeruginosa A-21213. Conditions: 37° C.; for MIC: Pseudomonas aeruginosa, A21213, Ps. aeruginosa A-21213, overnight. The class given is cell-based. How it is done: as §1
A short description of data set [22]: Mouse blood levels after oral administration. The format is in vivo. The source says:
Blood level values represent averages of 4 experiments for
d,l-2-methylpenem-3-carboxylic acid, 3 for ampicillin and 1 for
Assay Organism: Bacillus megaterium A-9737

Data set [23] can be described thus: in vivo. The settings on record: mouse, im, 40 mg/kg.
In data set [24] the test system is bacteria. The settings on record: as reported in literature; cited from earlier work. This is another data set of the same source.
Setting [25] is: blood, oral, 100 mg./kg., 5 minutes after administration, read-out: Blood Level.
Where [26] appears, read: blood, oral, 100 mg./kg., 10 minutes after administration, read-out: Blood Level.
[27] abbreviates: blood, oral, 100 mg./kg., 15 minutes after administration, read-out: Blood Level.
Setting [28] is: blood, oral, 100 mg./kg., 30 minutes after administration, read-out: Blood Level.
Setting [29] is: blood, oral, 100 mg./kg., 45 minutes after administration, read-out: Blood Level.

Converted amounts (≈) assume the structure as drawn. Like-named read-outs stand apart in the source and are kept apart here. Where only a bound is given, the exact number is not on record here.

Take `CC(=O)NC=C[S+]([O-])C1=C(C(=O)O)N2C(=O)C(C(C)OS(=O)(=O)O)C2C1` (stereo not drawn): the antibacterial activity entry in data set [1] is given as “some antibacterial activity”. For the same molecule, the β-lactamase inhibition entry in data set [2] is listed as “β-lactamase inhibitor”.
A word on the MIC: it is the least concentration at which growth counts as inhibited. Higher therefore signals weaker potency. As for `CC1=C(C(=O)O)N2C(=O)C[C@H]2S1` (racemic) [d,l-2-methylpenem-3-carboxylic acid, 2-Methylpenem-3-carboxylic Acid], the MIC in data set [3] amounted to 0.03 µg/mL (≈ 0.162 µM); in [4] it was 0.13 µg/mL (≈ 0.702 µM); in data set [5] (A9537, Staph. aureus A-9537, overnight), 0.13 µg/mL (≈ 0.702 µM); in data set [5] (A9537, Staph. aureus A-9537 and 50% serum, overnight), 8 µg/mL (≈ 43.2 µM); in data set [6] (Staphylococcus aureus) it was 1 µg/mL (≈ 5.4 µM); in data set [7] (Staphylococcus aureus), 1 µg/mL (≈ 5.4 µM). Moreover, the MIC in data set [8] (Enterococcus faecalis, A20688, Str. faecalis A-20688, overnight) is 32 µg/mL (≈ 173 µM); in data set [9] (Escherichia coli, A15119, E. coli A-15119, overnight), 8 µg/mL (≈ 43.2 µM); in [10] (Escherichia coli, A203411, E. coli A-20341-1, overnight), 16 µg/mL (≈ 86.4 µM); in data set [11] (Klebsiella pneumoniae, A15130, K. pneumoniae A-15130, overnight), 16 µg/mL (≈ 86.4 µM); in [12] it was > 125 µg/mL; in data set [13] (Proteus mirabilis, A9900, Pr. mirabilis A-9900, overnight) it was 8 µg/mL (≈ 43.2 µM). In addition, the MIC in data set [14] (Proteus vulgaris, A9716, Pr. vulgaris A-9716, overnight) was 8 µg/mL (≈ 43.2 µM); in data set [15] (Morganella morganii, A15153, Pr. morganii A-15153, overnight), 16 µg/mL (≈ 86.4 µM); in data set [16] (Providencia rettgeri, A21205, Pr. rettgeri A-21205, overnight) it was 4 µg/mL (≈ 21.6 µM); in data set [17] (Serratia marcescens, A20019, Ser. marcescens A-20019, overnight) it was 8 µg/mL (≈ 43.2 µM); in [18] (Enterobacter cloacae, A9659, Ent. cloacae A-9659, overnight), 16 µg/mL (≈ 86.4 µM); in [19] (Enterobacter cloacae, A9656, Ent. cloacae A-9656, overnight) it was 16 µg/mL (≈ 86.4 µM). The MIC in [20] (Pseudomonas aeruginosa, A9843A) is 125 µg/mL (≈ 675 µM); in data set [21], > 125 µg/mL. The concentration at 5 min in data set [22] (setting [25]) was found to be 28000 ng/mL; in data set [23], 27100 ng/mL. For the same molecule, the concentration at 10 min in [22] (setting [26]) is 25100 ng/mL. For the same molecule, the results for the concentration at 0.25 h in [22] (setting [27]) and in data set [23] were 18400 ng/mL and 12700 ng/mL, respectively. Moreover, the concentration at 0.5 h in data set [22] (setting [28]) is < 5600 ng/mL; in [23], < 5900 ng/mL. The concentration at 0.75 h in data set [22] (setting [29]) is < 3900 ng/mL; in data set [23], < 5900 ng/mL. Besides, the concentration at 1 h in data set [22] (blood, oral, 100 mg./kg., 60 minutes after administration, read-out: Blood Level) is < 4300 ng/mL; in data set [23], < 5900 ng/mL. Also, the concentration at 2 h in data set [22] (blood, oral, 100 mg./kg., 120 minutes after administration, read-out: Blood Level) is < 4300 ng/mL.
On to `CC1(C)S[C@@H]2[C@H](NC(=O)[C@H](N)c3ccc(O)cc3)C(=O)N2[C@H]1C(=O)O` [Amoxicillin], for which the concentration at 5 min in data set [22] (setting [25]) is 1500 ng/mL. The concentration at 10 min in data set [22] (setting [26]) turned out to be 7100 ng/mL. Besides, the concentration at 0.25 h in data set [22] (setting [27]) turned out to be 9900 ng/mL. Also, in data set [22] (setting [28]), the concentration at 0.5 h worked out at 14000 ng/mL. Also, the concentration at 0.75 h in data set [22] (setting [29]) stood at 15500 ng/mL.
In [22] (in vivo, po, 100 mg/kg), `CC1(C)S[C@@H]2[C@H](NC(=O)[C@H](N)c3ccccc3)C(=O)N2[C@H]1C(=O)O` [Ampicillin] returned a concentration at 5 min of 2100 ng/mL, a concentration at 10 min of 3900 ng/mL, a concentration at 0.25 h of 6100 ng/mL and a concentration at 0.5 h of 8200 ng/mL. In data set [22] (in vivo, po, 100 mg/kg), this molecule showed a concentration at 0.75 h of 6100 ng/mL, a concentration at 1 h of 7900 ng/mL and a concentration at 2 h of 2800 ng/mL. Besides, in [23], the concentration at 5 min worked out at 20800 ng/mL, the concentration at 0.25 h was determined as 22800 ng/mL, the concentration at 0.5 h turned out to be 20000 ng/mL and the concentration at 0.75 h stood at 11800 ng/mL. In data set [23], this molecule gave a concentration at 1 h of 7100 ng/mL.
Turning to `C[C@@H](O)[C@H]1C(=O)N2C(C(=O)O)=C(SCCN)C[C@H]12` [Thienamycin], the antibacterial activity result in data set [1] is “highly potent broad-spectrum antibiotic”.
As for `O=C(O)C1C(=CCO)OC2CC(=O)N21` (stereo not drawn) [clavulinic acid], the antibacterial activity result in data set [1] is listed as “low order of antibacterial activity”. In addition, the β-lactamase inhibition result in data set [2] is “inhibits the action of certain β-lactamases”. Further, the “effect on in vitro and in vivo activity of some penicillins and cephalosporins” value in data set [24] is “enhances the in vitro and in vivo activity of some penicillins and cephalosporins”.
Consider `CC1=C(C(=O)O)N2C(=O)C[C@H]2S1` [d-2-methylpenem-3-carboxylic acid, (+)-2-methylpenem-3-carboxylic Acid], for which the figures for the MIC in [12] and in [21] were > 125 µg/mL and 63 µg/mL (≈ 340 µM), respectively. Moreover, the M.I.C. in data set [16] came out at 4 meg./ml; in [20] it was 32 meg./ml.
For the molecule `CC1=C(C(=O)O)N2C(=O)C[C@H]2S1` [l-2-methylpenem-3-carboxylic acid, (-)-2-methylpenem-3-carboxylic Acid], the M.I.C. is > 125 meg./ml in data set [6]; > 125 meg./ml in data set [7]; 125 meg./ml in data set [8] (Str. faecalis A-20688, overnight); > 125 meg./ml in [9] (E. coli A-15119, overnight); > 125 meg./ml in data set [10] (E. coli A-20341-1, overnight); > 125 meg./ml in data set [11] (K. pneumoniae A-15130, overnight). The M.I.C. is > 125 meg./ml in data set [12] (overnight); > 125 meg./ml in data set [13] (Pr. mirabilis A-9900, overnight); > 125 meg./ml in data set [14] (Pr. vulgaris A-9716, overnight); > 125 meg./ml in data set [15] (Pr. morganii A-15153, overnight); > 125 meg./ml in data set [16]; > 125 meg./ml in [17] (Ser. marcescens A-20019, overnight). Besides, the M.I.C. in [18] (Ent. cloacae A-9659, overnight) is > 125 meg./ml; in data set [19] (Ent. cloacae A-9656, overnight), > 125 meg./ml; in data set [20] it was > 125 meg./ml; in data set [21] (Ps. aeruginosa A-21213, overnight) it was > 125 meg./ml.
